Source: ChEMBL document CHEMBL1201862, “PubChem BioAssay data set” (2004)
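Five concentrations, 48 hours, 96-well plates. GI50 is the concentration that inhibits growth by half.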 Active and inactive are the calls of the source. Cut-off read from the data, not from the text of the source: active = GI50 up to about 1.1 µM and inactive = higher.

Key:
Assay in all cases: NCI tumour cell line growth inhibition, 48 h
A498 = tested on: A498
COLO 205 = tested on: COLO 205
EKVX = tested on: EKVX
HCC 2998 = tested on: HCC 2998
HCT-116 = tested on: HCT-116
HOP-62 = tested on: HOP-62
K562 = tested on: K562
M14 = tested on: M14
MOLT-4 = tested on: MOLT-4
NCI-H522 = tested on: NCI-H522
OVCAR-4 = tested on: OVCAR-4
OVCAR-5 = tested on: OVCAR-5
SF-268 = tested on: SF-268
SK-MEL-28 = tested on: SK-MEL-28
SK-OV-3 = tested on: SK-OV-3
SNB-19 = tested on: SNB-19
SNB-75 = tested on: SNB-75
SNB-78 = tested on: SNB-78
SW-620 = tested on: SW-620
U-251 = tested on: U-251

Measured: GI50

O=S(O)CCCCSSCCCCS(=O)(=O)S
inactive: A498 > 100 µM | COLO 205 48.5 µM | EKVX 19.4 µM | HCC 2998 > 100 µM | HCT-116 > 100 µM | HOP-62 > 100 µM | K562 32.1 µM | M14 15.7 µM | MOLT-4 2 µM | NCI-H522 19.3 µM | OVCAR-4 25.5 µM | OVCAR-5 > 100 µM | SF-268 35.6 µM | SK-MEL-28 27 µM | SK-OV-3 > 100 µM | SNB-19 > 100 µM | SNB-75 10.9 µM | SNB-78 35.1 µM | SW-620 37.7 µM | U-251 > 100 µM

COC(=O)C(=O)C(C(=O)Nc1cccc(C)c1C)C1Sc2ccccc2NC1=O (stereo not given)
inactive: A498 11.5 µM | COLO 205 8.97 µM | EKVX > 25 µM | HCC 2998 15.6 µM | HCT-116 8.22 µM | HOP-62 19.6 µM | K562 9.79 µM | M14 8.55 µM | MOLT-4 > 25 µM | NCI-H522 15.8 µM | OVCAR-4 > 25 µM | OVCAR-5 > 25 µM | SF-268 17.6 µM | SK-MEL-28 14.6 µM | SK-OV-3 > 25 µM | SNB-19 21.9 µM | SNB-75 9.84 µM | SNB-78 21.2 µM | SW-620 8.55 µM | U-251 12.3 µM
